Results from patent US6825206B1 (priority 2000, dated 2004).

Legend:
human topI = biological target: T1, human topI (Homo sapiens, UniProt P11387); type: biochemical; details: band of nicked DNA increases with concentration; FIG. 4
T1 sequence (P11387 1-765): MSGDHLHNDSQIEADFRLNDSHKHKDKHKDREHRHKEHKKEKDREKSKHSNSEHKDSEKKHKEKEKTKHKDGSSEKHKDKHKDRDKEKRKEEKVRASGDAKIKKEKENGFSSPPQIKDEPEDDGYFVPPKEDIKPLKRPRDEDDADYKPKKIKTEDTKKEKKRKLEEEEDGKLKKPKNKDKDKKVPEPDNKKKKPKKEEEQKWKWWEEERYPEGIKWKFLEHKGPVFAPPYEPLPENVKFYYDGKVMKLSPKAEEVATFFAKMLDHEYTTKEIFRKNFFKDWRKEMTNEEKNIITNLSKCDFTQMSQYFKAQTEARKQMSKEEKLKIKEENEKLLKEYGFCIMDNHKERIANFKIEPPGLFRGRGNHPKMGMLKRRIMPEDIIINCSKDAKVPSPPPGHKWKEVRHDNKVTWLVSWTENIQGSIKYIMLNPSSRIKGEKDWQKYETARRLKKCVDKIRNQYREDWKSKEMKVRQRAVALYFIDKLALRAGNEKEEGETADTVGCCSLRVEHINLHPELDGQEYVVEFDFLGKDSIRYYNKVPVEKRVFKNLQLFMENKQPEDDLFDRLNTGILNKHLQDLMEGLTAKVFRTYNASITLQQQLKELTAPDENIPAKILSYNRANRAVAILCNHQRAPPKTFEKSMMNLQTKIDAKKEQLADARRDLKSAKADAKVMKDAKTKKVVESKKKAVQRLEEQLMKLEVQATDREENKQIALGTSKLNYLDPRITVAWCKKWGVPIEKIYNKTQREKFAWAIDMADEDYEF
Source text: DNA cleavage produced by human topI in pSK DNA;
The nicked DNA migrates to position 2 on these gels.

[1] = biological target: T2, camptothecin-topo I-DNA complex (Homo sapiens, UniProt P11387); type: biochemical; details: after addition of NaCl; FIG. 5
T2 sequence (P11387 1-765): T1 sequence (P11387 1-765)
Source text: In this assay, nicked DNA is first formed by the action of the camptothecins. Addition of NaCl perturbs the equilibrium and destabilizes the camptothecin-topo I-DNA complex. The persistence of the nicked DNA under these conditions indicates increased stability of the cleavable complex.

U937 leukemia cell line = assay: toxicity against U937 leukemia cell line; type: cell-based, human
Source text: Untreated P388 WT (wild type) cells show dark wells where cells are viable.

SMILES	induction of nicked DNA (human topI)	persistence of nicked DNA / stabilization of the cleavable complex [1]	IC50 (U937 leukemia cell line) [nM]	time after which nicked DNA is difficult to detect [1] [min]
CC[C@@]1(O)C(=O)OCc2c1cc1n(c2=O)Cc2cc3cc4c(cc3nc2-1)OCO4 [MDC, 10,11-methylenedioxy-20(S)-camptothecin]	induce nicked DNA	show nicked DNA for longer periods of time		
CC[C@@]1(O)C(=O)OCc2c1cc1n(c2=O)Cc2c-1nc1cc3c(cc1c2CCl)OCO3 [CMMDC, 7-chloromethyl-10,11-methylenedioxy-20(S)-camptothecin]			7	
CC[C@@]1(O)C(=O)OCc2c1cc1n(c2=O)Cc2cc3ccccc3nc2-1 [CPT, camptothecin]	induce nicked DNA			3
